Data on eight molecules can be found in ChEMBL document CHEMBL6153063 (Eur J Med Chem, 2025).

pIC50, pKd: −log10 of the molar value. Activity calls are given as the source filed them. The rule behind the calls is not given here.

Assay [1] can be described thus: Inhibition of cell viability in human Gilteritinib-resistant MOLM-14 cells expressing FLT3 F691L mutant incubated for 48 hrs by Alamar blue assay. The class given is functional, cell-based. As to conditions: Gilteritinib-resistant MOLM-14, 48 h.
Assay [2] has as its system MOLM-14. As to the kind of experiment: Inhibition of cell viability in human MOLM-14 cells incubated for 48 hrs by Alamar blue assay. The class given is functional, cell-based. To be noted: MOLM-14, 48 h.
A short description of assay [3]: Inhibition of cell viability in human Venetoclax-resistant MV4-11 cells overexpressing Bcl-2 incubated for 48 hrs by Alamar blue assay. As to conditions: Venetoclax-resistant MV4-11, 48 h. The class given is functional, cell-based.
In assay [4] the test system is MV4-11. Nature of the assay: Inhibition of cell viability in human MV4-11 cells incubated for 48 hrs by Alamar blue assay. The assay is classed as functional, cell-based. To be noted: MV4-11, 48 h.
Assay [5] has as its target T1, Receptor-type tyrosine-protein kinase FLT3 (Homo sapiens, UniProt P36888).
T1 sequence (P36888 whole entry): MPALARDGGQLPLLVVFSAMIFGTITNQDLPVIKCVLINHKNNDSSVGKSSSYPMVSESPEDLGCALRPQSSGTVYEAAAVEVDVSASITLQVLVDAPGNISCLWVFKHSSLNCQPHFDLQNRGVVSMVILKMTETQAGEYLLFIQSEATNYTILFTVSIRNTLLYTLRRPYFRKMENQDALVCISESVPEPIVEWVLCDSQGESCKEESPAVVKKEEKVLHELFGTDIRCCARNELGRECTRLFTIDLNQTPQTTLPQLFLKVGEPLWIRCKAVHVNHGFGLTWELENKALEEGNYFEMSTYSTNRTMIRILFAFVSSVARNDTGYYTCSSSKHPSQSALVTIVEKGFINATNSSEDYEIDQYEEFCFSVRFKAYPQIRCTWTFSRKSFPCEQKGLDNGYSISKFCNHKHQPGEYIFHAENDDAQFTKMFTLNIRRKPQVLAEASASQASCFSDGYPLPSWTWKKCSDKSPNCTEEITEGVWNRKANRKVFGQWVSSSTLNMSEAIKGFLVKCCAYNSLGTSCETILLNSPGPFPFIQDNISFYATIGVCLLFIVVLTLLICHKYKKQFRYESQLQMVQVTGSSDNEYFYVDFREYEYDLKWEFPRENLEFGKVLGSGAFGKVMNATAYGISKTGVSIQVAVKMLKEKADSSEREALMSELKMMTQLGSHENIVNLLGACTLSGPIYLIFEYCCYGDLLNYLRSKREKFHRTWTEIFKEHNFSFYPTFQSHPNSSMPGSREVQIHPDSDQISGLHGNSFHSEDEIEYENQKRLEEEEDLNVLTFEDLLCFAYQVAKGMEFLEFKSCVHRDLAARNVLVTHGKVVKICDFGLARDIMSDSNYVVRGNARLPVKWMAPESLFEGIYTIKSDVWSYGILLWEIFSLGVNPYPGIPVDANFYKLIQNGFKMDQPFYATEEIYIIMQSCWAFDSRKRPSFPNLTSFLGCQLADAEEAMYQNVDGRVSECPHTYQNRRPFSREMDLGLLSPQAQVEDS
As to the kind of experiment: Binding affinity to FLT3 (unknown origin) assessed as dissociation constant incubated for 1 hr by KINOMEscan assay.

Assay [6] relates to MV4-11. Nature of the assay: Induction of apoptosis in human MV4-11 cells assessed as viable cells at 200 nM incubated for 48 hrs by Annexin V/7AAD staining based flow cytometry (reference value: 95.6 %). As to conditions: read-out: Activity. The assay is classed as functional.
Assay [7] relates to MV4-11. As to the kind of experiment: Induction of apoptosis in human MV4-11 cells assessed as late apoptotic cells at 200 nM incubated for 48 hrs by Annexin V/7AAD staining based flow cytometry (reference value: 1.7 %). The class given is functional.
Assay [8] concerns Venetoclax-resistant MV4-11. As to the kind of experiment: Induction of apoptosis in human Venetoclax-resistant MV4-11 cells overexpressing Bcl-2 upto 200 nM incubated for 48 hrs by Annexin V/7AAD staining based flow cytometry. The class given is functional, cell-based.
The subject of assay [9] is Gilteritinib-resistant MOLM-14. As to the kind of experiment: Induction of apoptosis in human Gilteritinib-resistant MOLM-14 cells expressing FLT3 F691L mutant upto 200 nM incubated for 48 hrs by Annexin V/7AAD staining based flow cytometry. The assay is classed as functional, cell-based.
The subject of assay [10] is MV4-11. Nature of the assay: Induction of apoptosis in human MV4-11 cells assessed as early apoptotic cells at 200 nM incubated for 48 hrs by Annexin V/7AAD staining based flow cytometry (reference value: 2.3 %). The assay is classed as functional.
For assay [11], the target named is Apoptosis regulator Bcl-2 (Homo sapiens, UniProt P10415). As to the kind of experiment: Binding affinity to Bcl-2 (unknown origin) assessed as dissociation constant incubated for 1 hr by KINOMEscan assay.
Assay [12] deals with MOLM-14. Nature of the assay: Inhibition of cell viability in human MOLM-14 cells incubated for 48 hrs in presence of VEN by Alamar blue assay. As to conditions: MOLM-14, 48 h.
Assay [13] is described as follows: cells. To be noted: Homo sapiens, Venetoclax-resistant MV4-11, 48 h.
Assay [14] is described as follows: cells. To be noted: Homo sapiens, Gilteritinib-resistant MOLM-14, 48 h.
Assay [15] relates to MV4-11. Nature of the assay: Induction of apoptosis in human MV4-11 cells assessed as early apoptotic cells at 200 nM incubated for 48 hrs in presence of VEN by Annexin V/7AAD staining based flow cytometry (reference value: 2.3 %). The class given is functional.
Assay [16] has as its system MV4-11. Nature of the assay: Inhibition of cell viability in human MV4-11 cells incubated for 48 hrs in presence of VEN by Alamar blue assay. As to conditions: MV4-11, 48 h.
The subject of assay [17] is MV4-11. As to the kind of experiment: Induction of apoptosis in human MV4-11 cells assessed as viable cells at 200 nM incubated for 48 hrs in presence of VEN by Annexin V/7AAD staining based flow cytometry (reference value: 95.6 %). As to conditions: read-out: Activity. The class given is functional.
Assay [18] concerns MV4-11. Nature of the assay: Induction of apoptosis in human MV4-11 cells assessed as late apoptotic cells at 200 nM incubated for 48 hrs in presence of VEN by Annexin V/7AAD staining based flow cytometry (reference value: 1.7 %). The assay is classed as functional.
Assay [19] in a line: Inhibition of cell viability in human Venetoclax-resistant MV4-11 cells overexpressing Bcl-2 incubated for 48 hrs in presence of GIL by Alamar blue assay. The assay is classed as functional, cell-based. To be noted: Venetoclax-resistant MV4-11, 48 h.
Assay [20] relates to MV4-11. Nature of the assay: Inhibition of cell viability in human MV4-11 cells incubated for 48 hrs in presence of GIL by Alamar blue assay. As to conditions: MV4-11, 48 h.
The test system of assay [21] is MOLM-14. Nature of the assay: Inhibition of cell viability in human MOLM-14 cells incubated for 48 hrs in presence of GIL by Alamar blue assay. The assay is classed as functional, cell-based. To be noted: MOLM-14, 48 h.
Assay [22] deals with MV4-11. As to the kind of experiment: Induction of apoptosis in human MV4-11 cells assessed as viable cells at 200 nM incubated for 48 hrs in presence of GIL by Annexin V/7AAD staining based flow cytometry (reference value: 95.6 %). The assay is classed as functional. To be noted: read-out: Activity.
Assay [23] deals with MV4-11. Nature of the assay: Induction of apoptosis in human MV4-11 cells assessed as late apoptotic cells at 200 nM incubated for 48 hrs in presence of GIL by Annexin V/7AAD staining based flow cytometry (reference value: 1.7 %). The class given is functional.
A short description of assay [24]: Inhibition of cell viability in human Gilteritinib-resistant MOLM-14 cells expressing FLT3 F691L mutant incubated for 48 hrs in presence of GIL by Alamar blue assay. To be noted: Gilteritinib-resistant MOLM-14, 48 h. The assay is classed as functional, cell-based.
Assay [25] concerns MV4-11. As to the kind of experiment: Induction of apoptosis in human MV4-11 cells assessed as early apoptotic cells at 200 nM incubated for 48 hrs in presence of GIL by Annexin V/7AAD staining based flow cytometry (reference value: 2.3 %). The class given is functional.

Apoptosis regulator Bcl-2, sequence (P10415 whole entry): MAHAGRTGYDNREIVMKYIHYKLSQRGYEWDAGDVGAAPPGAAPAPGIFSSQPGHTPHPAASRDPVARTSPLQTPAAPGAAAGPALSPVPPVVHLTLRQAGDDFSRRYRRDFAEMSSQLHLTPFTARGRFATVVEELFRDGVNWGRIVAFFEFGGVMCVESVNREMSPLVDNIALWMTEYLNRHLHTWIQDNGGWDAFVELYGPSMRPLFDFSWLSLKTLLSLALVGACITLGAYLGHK

Take `CCc1nc(C(N)=O)c(Nc2ccc(N3CCC(N4CCN(C(=O)CCCCCCNc5ccc(S(=O)(=O)NC(=O)c6ccc(N7CCN(CC8=C(c9ccc(Cl)cc9)CC(C)(C)CC8)CC7)cc6Oc6cnc7[nH]ccc7c6)cc5[N+](=O)[O-])CC4)CC3)c(OC)c2)nc1NC1CCOCC1`: the pIC50 in assay [1] was less than 5.00; in [2], 5.48; in assay [3] it was 6.04; in [4], 7.03.

Take `CCc1nc(C(N)=O)c(Nc2ccc(N3CCC(N4CCN(C(=O)CNc5ccc(S(=O)(=O)NC(=O)c6ccc(N7CCN(CC8=C(c9ccc(Cl)cc9)CC(C)(C)CC8)CC7)cc6Oc6cnc7[nH]ccc7c6)cc5[N+](=O)[O-])CC4)CC3)c(OC)c2)nc1NC1CCOCC1`: the negative-log IC50 (pIC50) in assay [1] was less than 5.00; in assay [2], 5.97; in assay [3] it was 6.68; in assay [4] it was 7.47. Besides, the figures for the pKd in [5] and in assay [11] were 6.69 and 9.04, respectively. Besides, in [6], the viability at 0.2 µM turned out to be 30.7%. Also, the results for the Activity in [7] and in [10] were 42.1% and 25.7%, respectively. Further, the outcome in assay [8] and in [9] was inactive.

Turning to `CCc1nc(C(N)=O)c(Nc2ccc(N3CCN(C(=O)CNc4ccc(S(=O)(=O)NC(=O)c5ccc(N6CCN(CC7=C(c8ccc(Cl)cc8)CC(C)(C)CC7)CC6)cc5Oc5cnc6[nH]ccc6c5)cc4[N+](=O)[O-])CC3)c(OC)c2)nc1NC1CCOCC1`, the negative-log IC50 (pIC50) in [1] is 5.77; in assay [2] it was 6.58; in [3], 6.79; in [4], 7.26. Besides, the results for the negative logarithm of the Kd (pKd) in [5] and in assay [11] were 7.20 and 8.37, respectively. Further, the viability at 0.2 µM in assay [6] was 52.2%. The Activity came to 27.9% in assay [7] and 18.6% in assay [10]. Further, the result in assay [8] and in [9] was inactive.

Take `CCc1nc(C(N)=O)c(Nc2ccc(N3CCC(N4CCN(C(=O)C5CCN(c6ccc(S(=O)(=O)NC(=O)c7ccc(N8CCN(CC9=C(c%10ccc(Cl)cc%10)CC(C)(C)CC9)CC8)cc7Oc7cnc8[nH]ccc8c7)cc6[N+](=O)[O-])CC5)CC4)CC3)c(OC)c2)nc1NC1CCOCC1`: the negative-log IC50 (pIC50) is less than 5.00 in [1], less than 5.00 in assay [2], less than 5.00 in [3] and 5.93 in assay [4].

In the case of `CCc1nc(C(N)=O)c(Nc2ccc(N3CCC(N4CCN(C)CC4)CC3)c(OC)c2)nc1NC1CCOCC1` [GILTERITINIB], the pIC50 is 7.79 in assay [12]; 6.89 in assay [1]; 7.59 in assay [2]; 8.06 in assay [13]; 7.27 in assay [3]; 7.20 in assay [14]. In addition, the results for the negative logarithm of the IC50 (pIC50) in assay [16] and in assay [4] were 8.59 and 7.83, respectively. The Activity is 31.1% in assay [15] and 66.9% in assay [18]. Further, the viability at 0.2 µM in [17] was 0.4%.

As for `CCc1nc(C(N)=O)c(Nc2ccc(N3CCN(C(=O)CCCCCCNc4ccc(S(=O)(=O)NC(=O)c5ccc(N6CCN(CC7=C(c8ccc(Cl)cc8)CC(C)(C)CC7)CC6)cc5Oc5cnc6[nH]ccc6c5)cc4[N+](=O)[O-])CC3)c(OC)c2)nc1NC1CCOCC1`, the pIC50 in assay [1] was 5.48; in assay [2], 6.27; in assay [3], 6.55; in [4], 6.97.

Consider `CCc1nc(C(N)=O)c(Nc2ccc(N3CCN(C(=O)C4CCN(c5ccc(S(=O)(=O)NC(=O)c6ccc(N7CCN(CC8=C(c9ccc(Cl)cc9)CC(C)(C)CC8)CC7)cc6Oc6cnc7[nH]ccc7c6)cc5[N+](=O)[O-])CC4)CC3)c(OC)c2)nc1NC1CCOCC1`, for which the negative logarithm of the IC50 (pIC50) in assay [1] is less than 5.00; in assay [2], less than 5.00; in assay [3] it was 5.49; in assay [4] it was 6.01.

As to `CC1(C)CCC(CN2CCN(c3ccc(C(=O)NS(=O)(=O)c4ccc(NCC5CCOCC5)c([N+](=O)[O-])c4)c(Oc4cnc5[nH]ccc5c4)c3)CC2)=C(c2ccc(Cl)cc2)C1` [VENETOCLAX], the pIC50 in assay [19] is 8.06; in assay [1], 5.70; in assay [20] it was 8.59; in assay [21] it was 7.79; in assay [2], 5.77; in assay [3], 6.12. For the same molecule, in [24], the pIC50 is 7.20. In [22], the viability at 0.2 µM was 0.4%. The Activity in assay [23] was 66.9%; in assay [25], 31.1%.
